Measured values: US20080113956A1, “Substituted Porphyrins” (priority 1997, published 2008)

How the values were obtained:
DNA = assay: SOD activity in vitro in the presence of DNA (DNA interaction); format: biochemical
Excerpt: The “ortho effect” also decreases the toxicity. It is well known that porphyrins, and particularly cationic porphyrins, interact with DNA and can act as DNA cleavers. This fact can be an issue in the use of metallo-porphyrins as anti-tumor drugs. The present mimetics avoid this interaction.
In order to maximize the decrease in toxicity due to interaction with DNA, two derivatives of the ortho compound have been prepared which carry four ethyl or four butyl groups (“4” and “5”, respectively).

[1] = Water solubility of the chloride salt; format: physicochemical; conditions: micelles were not observed
Method: The same procedure described above was used. 0.92 mL of 1-iodobutane (100 eq) was added and the mixture stirred at 100° C. for 7 days. […] The elemental analysis was thus performed on the hexafluorophosphate salt (non-viscous). The chlorine salt is water-soluble (micelles were not observed). UV(H2O) of the chloride salt, ε454.0 1.21×10^5 M^−1cm^−1. Elemental analysis, calcd. For MnC56H60N8P5F30.H2O: C (40.94), H (3.80), N (6.82); found: C (41.15), H (4.35), N (6.52).

SOD null E. coli (JI132) = assay: Aerobic growth of SOD null E. coli strain versus parental strain; format: cell-based
Method: FIG. 3. SOD activity in vivo (E. coli) of 1, 2, 3* and 4* (20 μM) in minimal medium (mixture of atropoisomers, JI=SOD deficient strain, AB parental strain).
(§1) SOD activity can be monitored in the presence and absence of EDTA using the method of McCord and Fridovich (J. Biol. Chem. 244:6049 (1969)). The efficacy of a mimetic can also be determined by measuring the effect of the mimetic on the aerobic growth of a SOD null E. coli strain versus a parental strain lacking the specific mutations. Specifically, parental E. coli (AB1157) and SOD null E. coli. (JI132) can be grown in M9 medium containing 0.2% casamino acids and 0.2% glucose at pH 7.0 and 37° C.; growth can be monitored in terms of turbidity followed at 700 nm.
The activity in vivo of the mimetics of the invention can be tested on an E. coli strain deleted of the genes coding for both the MnSOD and FeSOD. In this assay, the efficacy of a mimetic is determined by measuring the effect of the mimetic on the aerobic growth of a SOD null E. coli strain versus a parental strain. Specifically, parental E. coli (AB1157) and SOD null E. coli. (JI132) are grown in M9 medium containing 0.2% casamino acids and 0.2% glucose at pH 7.0 and 37° C.; growth is monitored in terms of turbidity followed at 700 nm.

[2] = SOD-like activity in vitro (xanthine/xanthine oxidase, ferricytochrome c; McCord and Fridovich); format: biochemical; conditions: Example VII
Method: as §1
The superoxide dismutase activity of the mimetics of the invention depends on a number of factors, including thermodynamic factors (eg the metal-centered redox-potential see FIG. 1)), and kinetic factors (eg electrostatic facilitation).
Superoxide dismuting activity. The SOD-like activities were measured using the xanthine/xanthine oxidase system as a source of O2^− and ferricytochrome c as its indicating scavenger (McCord et al, J. Biol. Chem. 244:6049 (1969)). O2— was produced at the rate of 1.2 μM per minute and reduction of ferricytochrome c was followed at 550 nm. Assays were conducted in presence of 0.1 mM EDTA in 0.05 M phosphate buffer (pH 7.8). Rate constants for the reaction of the compounds were based upon competition with […] cytochrome c, kcyt c=2.6×10^5 M^−1s^−1 (Butler et al, J. Biol. Chem. 257:10747 (1982)). All measurements were done at 25° C. Cytochrome c concentration was at least 10^3-fold higher than the concentrations of the SOD mimics and the rates were linear for at least two minutes, during which the compounds intercepted ˜100 equivalents of O2^−, thus confirming the catalytic nature of O2^− dismutation in presence of the mimics.
Superoxide dismuting activities. SOD-like activities were measured as described previously, based on competition with cytochrome c (McCord et al, J. Biol. Chem. 244:6049 (1969)). MnClxTE-2-PyP^5+ SOD-like activities are reported in Table 5, IC50 (M) representing the concentration for one unit of activity (or the concentration that causes 50% inhibition of cytochrome c reduction by O2^−) and kcat (M^−1s^−1) representing the rate constant for the superoxide dismutation reaction. The SOD-like activity per mole of MnCl4TE-2-PyP^5 is approximately 2-, 7- and 100-fold higher than MnOBTMPyP^4+, MnTM-2-PyP^5+ and MnTM-4PyP^5+, respectively (Faulkner et al, J. Biol. Chem. 269:23471 (1994); Batinic-Haberle et al, Arch. Biochem. Biophys. 343:225 (1997); Batinic-Haberle et al, J. Biol. Chem. 273:24521 (1998)). The SOD-like activity of MnCl4TE-2-PyP^5+ represents 20% of the activity of the Cu,Zn-SOD enzyme on a molar basis (40% per active site considering that the enzyme has two active sites) (Klug-Roth et al, J. Am. Chem. Soc. 95:2786 (1973)).

[3] = Electrochemistry: metal-centered redox potential; format: physicochemical; conditions: vs NHE; listed as 2
Method: Electrochemistry. The electrochemical characterization was performed as described previously on a Voltammetric Analyzer Model 600 (CH instrument) using a glassy carbon electrode (Ag/AgCl reference and Pt auxiliary electrodes), at 0.5 mM porphyrin, pH 7.8 (0.05 M phosphate buffer), 0.1 M NaCl. The potentials were standardized against potassium ferricyanide/potassium ferrocyanide couple (Batinic-Haberle et al, Arch. Biochem. Biophys. 343:225 (1997); Kolthof et al, J. Phys. Chem. 39:945 (1974)).
Electrochemistry. The metal-centered redox behavior of all metalloporphyrin products was reversible. The half-wave potentials (E^O1/2) were calculated as the average of the cathodic and anodic peaks and are given in mV vs NHE (Table 5). The average shift per chlorine is +55 mV (Table 5), which is in agreement with the values previously reported for H2TPP derivatives (between −50 and +70 mV) (Sen et al, Chem. Soc. Faraday Trans. 93:4281 (1997); Autret et al. J. Chem. Soc. Dalton Trans. 2793 (1996); Hariprasad et al, J. Chem. Soc. Dalton Trans. 3429 (1996); Tagliatesta et al, Inorg. Chem. 35:5570 (1996); Ghosh, J. Am. Chem. Soc. 117:4691 (1995); Takeuchi et al, J. Am. Chem. Soc. 116:9730 (1994); Binstead et al, Inorg. Chem. 30:1259 (1991); Giraudeau et al, J. Am. Chem. Soc. 101:3857 (1979)). This shift appears to be higher (˜+65 mV) between 0 and 1, and between 2 and 3 chlorines (Table 5). […] The manganese redox state of MnCl4TE-2-PyP^5 (E^O1/2=+448 mV) and MnOBTMPyP^4+ (E^O1.2=+480 mV) is 3+ and 2+, respectively. This difference may be explained by their difference in terms of redox potential (˜30 mV) but also by structural considerations, for instance an increased distortion of the porphyrin ring in the case of MnOBTMPyP^4+. (Batinic-Haberle et al, Arch. Biochem. Biophys. 343:225 (1997); Ochsenbein et al, Angew. Chem. Int. Ed. Engl. 33:348 (1994)).

solubility in water [1] | Compound | toxicity due to interaction with DNA, comparison between ortho derivatives (DNA; Table 2 and FIG. 3) | aerobic growth (A700) of SOD null E. coli cells (SOD null E. coli (JI132); 20 μM, glucose minimal medium (M9) plus 5 essential amino acids, JI132, listed as 2) | toxicity in vivo (E. coli) (SOD null E. coli (JI132); FIG. 3) | interaction with DNA (DNA; SOD activity in vitro in the presence of DNA) | rate of dismutation (kcat) [2] | E1/2 one-electron metal-centered redox-potential [3]
water-soluble | CCCC[n+]1ccccc1-c1c2nc(c(-c3cccc[n+]3CCCC)c3ccc([n-]3)c(-c3cccc[n+]3CCCC)c3nc(c(-c4cccc[n+]4CCCC)c4ccc1[n-]4)C=C3)C=C2.[Mn+3] [compound 5, manganic meso-tetrakis-(N-butylpyridinium-2-yl)porphyrin] | did not show a further decrease in toxicity |  |  |  |  | 
 | manganese(III) 5,10,15,20-tetrakis(N-methylpyridyl)porphyrin [MnTM-3-PyP^5+] |  | increase in A700 | decreased toxicity | greatly decreased | 4.1e+06 M⁻¹ s⁻¹ | +0.042 V
